Assay results as given in the supplement of paper PMC10307832.

Tests used:
Assay in all cases: relative viability (nuclei count vs DMSO), 5 days (fraction); higher = more cells survive
GSK126 + Crizotinib = compound: CC[C@H](C)N1C=C(C2=C(C=C(C=C21)C3=CN=C(C=C3)N4CCNCC4)C(=O)NCC5=C(C=C(NC5=O)C)C)C [GSK126] + C[C@@H](Oc1cc(-c2cnn(C3CCNCC3)c2)cnc1N)c1c(Cl)ccc(F)c1Cl [Crizotinib] (partner 1 µM)
Outline: (§1)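 Medians of duplicate plates are given as relative viability. That measure is the nuclei count in treated wells divided by the count in vehicle wells. Counts were taken on 4× images of lung cancer cell lines in 1536-well plates, 5 days after pin-tool dosing the day after seeding with one drug alone or a fixed anchor-drug dose plus five library-drug doses (not always all listed) in √10 steps.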

MLN4924 + Dasatinib = compound: NS(=O)(=O)OC[C@@H]1C[C@@H](n2ccc3c(N[C@H]4CCc5ccccc54)ncnc32)C[C@@H]1O [MLN4924] + Cc1nc(Nc2ncc(C(=O)Nc3c(C)cccc3Cl)s2)cc(N2CCN(CCO)CC2)n1 [Dasatinib] (partner 0.075 µM)
Outline: as §1

GSK126 + Lapatinib = compound: CC[C@H](C)N1C=C(C2=C(C=C(C=C21)C3=CN=C(C=C3)N4CCNCC4)C(=O)NCC5=C(C=C(NC5=O)C)C)C [GSK126] + CS(=O)(=O)CCNCc1ccc(-c2ccc3ncnc(Nc4ccc(OCc5cccc(F)c5)c(Cl)c4)c3c2)o1 [Lapatinib] (partner 2 µM)
Outline: as §1

Row | Cell Line | relative viability (GSK126 + Crizotinib; first compound 0.08 µM) | relative viability (GSK126 + Crizotinib; first compound 0.253 µM) | relative viability (GSK126 + Crizotinib; first compound 0.8 µM) | relative viability (GSK126 + Crizotinib; first compound 2.53 µM) | relative viability (GSK126 + Crizotinib; first compound 8 µM) | relative viability (MLN4924 + Dasatinib; first compound 0.04 µM) | relative viability (MLN4924 + Dasatinib; first compound 0.1265 µM) | relative viability (MLN4924 + Dasatinib; first compound 0.4 µM) | relative viability (MLN4924 + Dasatinib; first compound 1.265 µM) | relative viability (MLN4924 + Dasatinib; first compound 4 µM) | relative viability (GSK126 + Lapatinib; first compound 0.08 µM) | relative viability (GSK126 + Lapatinib; first compound 0.253 µM) | relative viability (GSK126 + Lapatinib; first compound 0.8 µM) | relative viability (GSK126 + Lapatinib; first compound 2.53 µM) | relative viability (GSK126 + Lapatinib; first compound 8 µM)
1 | NCI-H650 | 0.912 | 0.741 | 0.658 | 0.755 | 0.594 | 0.407 | 0.418 | 0.236 | 0.215 | 0.193 | 0.833 | 0.838 | 0.97 | 0.978 | 0.955
2 | LK-2 | 0.282 | 0.224 | 0.243 | 0.252 | 0.206 | 0.28 | 0.261 | 0.285 | 0.162 | 0.196 | 0.947 | 0.952 | 0.876 | 0.916 | 0.673
3 | HCC-366 | 0.652 | 0.548 | 0.549 | 0.475 | 0.431 | 0.67 | 0.702 | 0.967 | 0.627 | 0.0684 | 1.02 | 0.948 | 1.08 | 1.09 | 1.12
4 | PC-14 | 0.839 | 0.989 | 0.922 | 0.892 | 0.799 | 0.304 | 0.294 | 0.195 | 0.0356 | 0.0313 | 0.359 | 0.309 | 0.292 | 0.307 | 0.326
5 | NCI-H661 | 0.924 | 1.04 | 0.967 | 0.787 | 0.787 | 1 | 1.05 | 0.556 | 0.256 | 0.362 | 0.417 | 0.574 | 0.441 | 0.572 | 0.361
6 | NCI-H727 | 0.923 | 0.755 | 0.806 | 0.836 | 0.815 | 0.374 | 0.404 | 0.305 | 0.293 | 0.266 | 0.746 | 0.81 | 0.984 | 0.884 | 1.06
7 | NCI-H1734 | 0.676 | 0.682 | 0.72 | 0.689 | 0.642 | 0.636 | 0.588 | 0.305 | 0.0902 | 0.102 | 1.07 | 1 | 1.03 | 1.18 | 1.15
8 | EMC-BAC-2 | 0.772 | 0.765 | 0.718 | 0.723 | 0.701 | 0.584 | 0.572 | 0.32 | 0.191 | 0.159 | 0.913 | 0.899 | 0.89 | 0.88 | 0.944
9 | EKVX | 0.899 | 0.921 | 0.895 | 0.978 | 1.09 | 0.588 | 0.261 | 0.471 | 0.193 | 0.238 | 0.226 | 0.22 | 0.211 | 0.203 | 0.221
10 | NCI-H596 | 1.04 | 0.98 | 0.863 | 1.06 | 0.891 | 0.623 | 0.594 | – | 0.644 | 0.744 | 1.11 | 0.932 | 0.951 | 1.11 | 1.08
11 | NCI-H358 | 0.733 | 0.577 | 0.667 | 0.608 | 0.395 | 0.211 | 0.31 | 0.25 | 0.113 | 0.0832 | 0.487 | 0.461 | 0.525 | 0.454 | 0.51
12 | LOU-NH91 | 0.759 | 0.71 | 0.737 | 0.773 | 0.727 | 0.554 | 0.708 | 0.778 | 0.494 | 0.415 | 0.812 | 0.77 | 0.755 | 0.882 | 0.871
13 | NCI-H1437 | 0.99 | 0.914 | 0.879 | 0.797 | 0.794 | 0.276 | 0.456 | 0.556 | 0.235 | 0.11 | 0.95 | 0.729 | 0.776 | 0.748 | 0.852
14 | H3255 | 1.02 | 0.814 | 0.819 | 0.866 | 0.794 | 0.314 | 0.349 | 0.296 | 0.256 | 0.235 | 0.24 | 0.243 | 0.302 | 0.272 | 0.269
15 | NCI-H1666 | 1.33 | 0.838 | 0.938 | 1.04 | 1.23 | 0.898 | 0.781 | 0.503 | 0.238 | 0.28 | 0.635 | 0.608 | 0.724 | 0.704 | 0.695
